Data from paper PMC11173533, “Baicalin and Baicalein Enhance Cytotoxicity, Proapoptotic Activity, and Genotoxicity of Doxorubicin and Docetaxel in MCF-7 Breast Cancer Cells” (Molecules, 2024).
“And” between values parts separate entries of the source, which are not always exact repeats. Equal values may be shown once.

Assays:
MCF-7 cells [1] = experiment: MTT cell viability assay on MCF-7 cells; assay type: cell-based, human; details: for IC50: Homo sapiens, MCF7, read-out: Inhibitory concentration IC50 (reduces cell viability by 50%); for IC50 / Inhibitory concentration IC10 (reduces cell viability by 10%): MCF-7 cell line, 24 h incubation, MTT; for Concentrations giving statistically significant reduction in the number of living cells: MCF-7, 24 h incubation with flavonoid, p < 0.05 vs control; for Viable cells: MCF-7, doxorubicin 3 µmol/L after 22 h preincubation with flavonoid IC50
Protocol: (§1) Unless otherwise indicated, in experiments, cells were seeded at an appropriate density for the specific assay into 96-well plates or Petri dishes. They were then incubated in standard culture conditions, which included a temperature of 37 °C, 100% relative humidity, and a 5% CO2 incubator. […] After treatment, the cells were washed with PBS and, depending on the experiment, immediately used for measurement or cultured in a fresh medium for 24 or 48 h. Control cells were treated with a corresponding volume of PBS. Additional controls for solvents were also performed.
(§2) The principle of the method is a measurement of the absorbance of formazan, a product of the reduction of the water-soluble tetrazolium salt (MTT) by NADPH-dependent cellular oxidoreductases (mainly succinate dehydrogenase) in living cells. Formazan is insoluble in water and precipitates as purple crystals. The amount of formazan is proportional to the number of living and metabolically active cells.
(§3) After treatment, the cells were washed with PBS and cultured in a fresh medium for 48 h. Subsequently, the medium was aspirated, and an aliquot of 50 µL of 0.05 mg/mL MTT solution was added to each microplate well for 3 h. The formazan crystals were dissolved in dimethyl sulfoxide (DMSO), and the absorbance was measured at a wavelength of λ = 580 nm. The percentage of viable cells was calculated by comparing the absorbance value of the test samples to the absorbance value of the control, taking the absorbance of the control as 100%.

HUVEC-ST cells [2] = experiment: MTT cell viability assay on HUVEC-ST cells; assay type: cell-based, human; details: for Inhibitory concentration IC10 (reduces cell viability by 10%) / IC50: HUVEC-ST cell line, 24 h incubation, MTT; for Concentrations that significantly decreased cell viability: HUVEC-ST, 24 h incubation with flavonoid, p < 0.05 vs control; for IC50: Homo sapiens, read-out: Inhibitory concentration IC50 (reduces cell viability by 50%)
Protocol: as §1, §2, §3

MCF-7 cells [3] = experiment: Flavonoid-drug combination index (MTT, CompuSyn) in MCF-7 cells; assay type: cell-based, human
Protocol: (§4) The experiment with a non-constant combination of BLIN and BLEIN with DOX or DTX was carried out to determine the synergistic, additive, or antagonistic effect between investigated flavonoids and anticancer drugs. […] Subsequently, cell viability was determined by MTT assay. […] The results were presented as a combination index (CI).

HUVEC-ST cells [4] = experiment: Flavonoid-drug combination index (MTT, CompuSyn) in HUVEC-ST cells; assay type: cell-based, human
Protocol: as §4

MCF-7 cells [5] = experiment: Cytometric measurement of doxorubicin accumulation in MCF-7 cells; assay type: cell-based, human; details: 22 h preincubation with flavonoid IC50, after 20 min of drug
Protocol: The aromatic rings in the hydrophobic part of doxorubicin give the drug molecule fluorescent properties (λex = 490 nm, λem = 590 nm). Thus, the flow cytometric measurement of drug fluorescence inside the cells allows for the monitoring of its transport rate through the cell membrane. The increase in the intensity of drug fluorescence inside the cells is highly correlated with its accumulation.
The DOX was added to the cell suspension to achieve a final concentration equal to the IC50 value. During one hour of incubation (temp 37 °C) with the drug, samples for cytometric measurement were taken from the cell suspension after the first 5 min and then after every 10 min. Samples were analyzed using the flow cytometer LSR® II from Becton Dickinson (San Jose, CA, USA) using an argon laser with a wavelength of λ = 488 nm. Doxorubicin fluorescence intensity was calculated per single cell.

MCF-7 cells [6] = experiment: Annexin V FITC/propidium iodide double staining in MCF-7 cells; assay type: cell-based, human; details: for Viable cells: docetaxel IC50 + high concentration of flavonoid
Protocol: as §1
This assay is based on the principle that, in viable cells, phosphatidylserine (PS) is located in the inner membrane (side facing the cytoplasm). However, upon induction of apoptosis, PS is translocated to the outer membrane (PS also appears on the necrotic cell surface). The exposed phosphatidylserine can be detected by protein Annexin V stained with FITC dye. The addition of propidium iodide (PI) enabled necrotic cells to be distinguished. Thus, this method is convenient for counting and differentiating live cells from those undergoing apoptosis or necrosis.
The analysis was performed according to the manufacturer’s protocol on cells immediately after the treatment and 24 or 48 h postincubation. Samples were analyzed using the flow cytometer LSR® II from Becton Dickinson (San Jose, CA, USA) using an argon laser with a wavelength of λ = 488 nm.

MCF-7 cells [7] = experiment: Mitochondrial membrane potential (JC-1) in MCF-7 cells; assay type: cell-based, human
Protocol: as §1
The mitochondrial membrane potential was measured with the membrane-permeant JC-1 fluorescent probe. […] Thus, the measurement of the ratio of JC-1 dimer to monomer fluorescence can be used for estimating changes in mitochondrial membrane potential (ΔΨm).
The cells were then incubated in complete darkness for 30 min at 37 °C. After incubation, the cells were washed to remove the dye and suspended in fresh HBSS solution. Finally, the fluorescence intensity was measured using a Cary Eclipse spectrofluorometer (Varian, Inc.) at λex/em = 475 nm/530 nm for monomers and at λex/em = 535 nm/590 nm for dimers. Subsequently, the ratio of the fluorescence intensities at 530 nm/590 nm was calculated. The mitochondrial potential in both cell lines was measured immediately after incubation with investigated compounds. The results are expressed as a percentage of the control, considered 100%.

HUVEC = system: HUVEC; set-up: method as in Liu et al. [53]; details: 50 µmol/L, 48 h; ref Liu et al. [53]; cited from earlier work
[8] = flavonoid IC10 22 h preincubation + DOX IC50 2 h
[9] = flavonoid IC10 22 h preincubation + DTX IC50 2 h
[10] = flavonoid IC50 22 h preincubation + DOX IC50 2 h
[11] = flavonoid IC50 22 h preincubation + DTX IC50 2 h
[12] = doxorubicin IC50 + flavonoid IC50 preincubation, 48 h post-incubation
[13] = flavonoid IC50 alone 24 h, 24 h after incubation
[14] = flavonoid IC50 alone 24 h, 48 h after incubation
[15] = doxorubicin IC50 after 22 h preincubation with flavonoid IC50
[16] = flavonoid IC50 alone 24 h, control = 100%

Structure (SMILES) | IC50 (MCF-7 cells [1]) | Concentrations giving statistically significant reduction in the number of living cells (MCF-7 cells [1]) | Viable cells (MCF-7 cells [1]) | Inhibitory concentration IC10 (reduces cell viability by 10%) (MCF-7 cells [1]) | Inhibitory concentration IC10 (reduces cell viability by 10%) (HUVEC-ST cells [2]) | Concentrations that significantly decreased cell viability (HUVEC-ST cells [2]) | IC50 (HUVEC-ST cells [2]) | Combination index (CI) (MCF-7 cells [3]; [8]) | Combination index (CI) (MCF-7 cells [3]; [9]) | Combination index (CI) (MCF-7 cells [3]; [10]) | Combination index (CI) (MCF-7 cells [3]; [11]) | Combination index (CI) (HUVEC-ST cells [4]; [8]) | Combination index (CI) (HUVEC-ST cells [4]; [9]) | Combination index (CI) (HUVEC-ST cells [4]; [10]) | Combination index (CI) (HUVEC-ST cells [4]; [11]) | Amount of doxorubicin in cells relative to cells not treated with flavonoids (MCF-7 cells [5]) | AV+/PI− cells (undergoing apoptosis) (MCF-7 cells [6]; [12]) | AV+/PI− cells (undergoing apoptosis) (MCF-7 cells [6]; [13]) | AV+/PI+ cells (MCF-7 cells [6]; [14]) | Mitochondrial membrane potential ΔΨm, % of control (MCF-7 cells [7]; [15]) | other results
O=C(O)[C@H]1O[C@@H](Oc2cc3oc(-c4ccccc4)cc(=O)c3c(O)c2O)[C@H](O)[C@@H](O)[C@@H]1O [baicalin, baicalein 7-O-β-D-glucuronide] | 250 ± 10.5 µM | ≥ 56 µmol/L | 21% | 36 ± 3.4 µmol/L | 101 ± 10.7 µmol/L | ≥ 112 µmol/L | 167 ± 6.7 µM | 1.158 | 0.9652 | 0.6435 | 0.5421 | 2.915 | 0.9948 | 1.794 | 3.1 and 3.137 | over two times higher | 34% | ~20% | 25% | 31% | Viable cells (MCF-7 cells [6]; 24 h after incubation): 22%; Viable cells (MCF-7 cells [6]; 48 h after incubation): 24%; Mitochondrial membrane potential ΔΨm, % of control (MCF-7 cells [7]; [16]): 30%; Viable HUVECs, % of the control (HUVEC): 61% ± 8%
O=c1cc(-c2ccccc2)oc2cc(O)c(O)c(O)c12 [baicalein, 5,6,7-Trihydroxyflavone] | 95 ± 4.8 µM | ≥ 10 µmol/L | 10% | 9 ± 0.7 µmol/L | 75 ± 1.8 µmol/L | ≥ 56 µmol/L | 115 ± 2.6 µM | 1.073 | 1.08 | 0.3412 | 0.6276 | 0.8721 | 0.9611 | 0.6801 | 0.4428 | over two times higher | 21% | ~20% | 28% | 20% | Mitochondrial membrane potential ΔΨm, % of control (MCF-7 cells [7]; docetaxel IC50 after 22 h preincubation with flavonoid IC50): 18%; Mitochondrial membrane potential ΔΨm, % of control (MCF-7 cells [7]; [16]): 30%; Viable HUVECs, % of the control (HUVEC): 37% ± 3%
